What is called GI50 is the concentration that inhibits growth by half.

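1) Cells in 96-well plates. 2) Compound, 48 h, 5 concentrations. 3) Linear interpolation between surrounding doses. 4) Unreached endpoint = highest concentration. GI50 is the concentration that inhibits growth by half.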 Calls of active or inactive are those of the source. Rule as the data show it: active = GI50 up to about 1.1 µM and inactive = higher.

Some test systems named below: CCRF-CEM; UACC-257; SF-295; HCC 2998; MDA-MB-231; NCI-H23; RPMI-8226; M14; NCI/ADR-RES; OVCAR-3; HCT-116; Malme-3M; IGROV-1; A549; NCI-H460; SK-MEL-2; PC-3; T47D; LOX IMVI; Hs-578T.
What all share (assay): DTP human tumour cell line panel, 48 h

On to `Cc1cc2[nH]c3c(C#N)c(-c4ccccc4)c(/N=N/c4cccc(C(F)(F)F)c4)c(=O)n3c2cc1C`, for which the GI50 was 5.3 µM (inactive) in the assay with CCRF-CEM; 26.8 µM (inactive) with UACC-257; 42.6 µM (inactive) in the assay on SF-295; 59.2 µM (inactive) with HCC 2998; 85.5 µM (inactive) in the assay on MDA-MB-231; 14.6 µM (inactive) in the assay on NCI-H23. Also, the GI50 was 5.35 µM (inactive) in the assay on RPMI-8226; 34.4 µM (inactive) with M14; 34.3 µM (inactive) in the assay on NCI/ADR-RES; 8.55 µM (inactive) in the assay on OVCAR-3; 13.7 µM (inactive) in the assay on HCT-116; 42.9 µM (inactive) with Malme-3M. Besides, the GI50 with IGROV-1 was 21.8 µM (inactive); in the assay with A549, 25.3 µM (inactive); in the assay on NCI-H460, 21.4 µM (inactive); in the assay with SK-MEL-2 it was 58.1 µM (inactive); with PC-3 it was 32.2 µM (inactive); in the assay on T47D it was 20.3 µM (inactive). For the same compound, the GI50 with LOX IMVI is 49.1 µM (inactive).
For `O=C1/C(=C/c2ccc(O)cc2)CCC1CNc1ccc(Cl)cc1` (stereo not drawn), the concentration for 50% growth inhibition (GI50) in the assay on CCRF-CEM was 0.624 µM (active); with UACC-257, 3.05 µM (inactive); in the assay on SF-295 it was 2.88 µM (inactive); in the assay with HCC 2998, 3.93 µM (inactive); in the assay on MDA-MB-231, 3.04 µM (inactive); with NCI-H23, 5.9 µM (inactive). The concentration for 50% growth inhibition (GI50) in the assay with RPMI-8226 is 0.755 µM (active); with M14 it was 0.643 µM (active); with NCI/ADR-RES, 5.45 µM (inactive); with OVCAR-3 it was 2.28 µM (inactive); in the assay on HCT-116, 1.38 µM (inactive); in the assay on Malme-3M, 4.28 µM (inactive). Further, the GI50 is 3.21 µM (inactive) with IGROV-1; 17.7 µM (inactive) in the assay with Hs-578T; 7.01 µM (inactive) in the assay on A549; 4.15 µM (inactive) in the assay on NCI-H460; 14.4 µM (inactive) in the assay on SK-MEL-2; 1.42 µM (inactive) in the assay with PC-3. Moreover, in the assay on LOX IMVI, the GI50 was 0.27 µM (active).
For the compound `CCCCN(CCCC)C1(c2cc3ccccc3s2)CCCCC1.[O-][Cl+3]([O-])([O-])O`, the GI50 in the assay on CCRF-CEM is 12.1 µM (inactive); in the assay on UACC-257, 18.1 µM (inactive); in the assay with SF-295 it was 13.2 µM (inactive); in the assay with HCC 2998, 14.1 µM (inactive); in the assay with MDA-MB-231 it was 15.9 µM (inactive); in the assay with NCI-H23 it was 15.5 µM (inactive). The GI50 in the assay with M14 was 14.6 µM (inactive); in the assay with NCI/ADR-RES, 17.7 µM (inactive); in the assay with OVCAR-3, 15.7 µM (inactive); with HCT-116 it was 10.8 µM (inactive); in the assay on IGROV-1, 15.5 µM (inactive); with A549, 18.2 µM (inactive). For the same compound, the GI50 was 13.5 µM (inactive) with NCI-H460; 19.8 µM (inactive) in the assay with SK-MEL-2; 17.9 µM (inactive) with PC-3; 16.2 µM (inactive) in the assay on T47D; 13.9 µM (inactive) with LOX IMVI.
Turning to `CC(=O)c1cccc(Nc2nc3ccccc3c3occc23)c1`, the GI50 was > 100 µM (inactive) in the assay with CCRF-CEM; > 100 µM (inactive) in the assay with UACC-257; 16.2 µM (inactive) in the assay with SF-295; 46.1 µM (inactive) in the assay with HCC 2998; 24.8 µM (inactive) with MDA-MB-231; 16.7 µM (inactive) with NCI-H23. Moreover, the GI50 in the assay on RPMI-8226 is > 100 µM (inactive); with M14, 35.2 µM (inactive); in the assay on NCI/ADR-RES it was 23 µM (inactive); in the assay on OVCAR-3, 34.2 µM (inactive); in the assay with HCT-116, 18.2 µM (inactive); in the assay with Malme-3M, 19.9 µM (inactive). The GI50 in the assay on A549 is 13.5 µM (inactive); in the assay on NCI-H460, 20.5 µM (inactive); in the assay with PC-3, 31.3 µM (inactive); with T47D, 21 µM (inactive); in the assay on LOX IMVI it was 46.2 µM (inactive).
As to `Cc1ccc(S(=O)(=O)N/N=C2/CCC3(O)CC2(C)CCC2[C@H]3CC2(C)C)cc1` (stereo partly drawn), the GI50 is 12 µM (inactive) with CCRF-CEM; 37.8 µM (inactive) in the assay with UACC-257; 25.1 µM (inactive) with SF-295; 37.3 µM (inactive) in the assay on NCI-H23; 38.4 µM (inactive) in the assay with RPMI-8226; 43.4 µM (inactive) in the assay with M14. Besides, the GI50 in the assay with NCI/ADR-RES is 28.2 µM (inactive); in the assay with OVCAR-3 it was 40.2 µM (inactive); with HCT-116, 24.8 µM (inactive); in the assay on Malme-3M, 35.3 µM (inactive); with IGROV-1, 23.5 µM (inactive); in the assay on Hs-578T, 35.5 µM (inactive). Further, the GI50 in the assay with A549 is 27.3 µM (inactive); with NCI-H460, 22.8 µM (inactive); in the assay with SK-MEL-2, 23.8 µM (inactive); in the assay on PC-3 it was 12.5 µM (inactive); in the assay with T47D it was > 100 µM (inactive); in the assay with LOX IMVI it was 11.2 µM (inactive).
Turning to `Cc1ccc(S(=O)(=O)/N=C(\NN)Nc2ccc(Cl)cc2)cc1`, the GI50 in the assay on CCRF-CEM, with UACC-257, in the assay on SF-295, with MDA-MB-231, with NCI-H23 and in the assay on RPMI-8226 was > 100 µM (inactive) in each case. In addition, the GI50 with M14, in the assay on NCI/ADR-RES, in the assay on OVCAR-3, in the assay with HCT-116, in the assay with IGROV-1 and in the assay with A549 was > 100 µM (inactive) each time. Further, the GI50 with NCI-H460 was > 100 µM (inactive); with SK-MEL-2, > 100 µM (inactive); in the assay with PC-3, > 100 µM (inactive); in the assay on T47D, 88.3 µM (inactive); in the assay on LOX IMVI, > 100 µM (inactive).
Regarding `NC(=S)N/N=C(\Cc1nc2ccc(Cl)cc2nc1O)C(=O)Nc1ccc(Cl)cc1`, the GI50 with CCRF-CEM, with UACC-257, in the assay with SF-295, in the assay on HCC 2998, in the assay with MDA-MB-231 and in the assay with NCI-H23 was > 100 µM (inactive) throughout. Further, the GI50 with M14, in the assay on NCI/ADR-RES, with OVCAR-3, with HCT-116, in the assay with IGROV-1 and in the assay on Hs-578T was > 100 µM (inactive) each time. Further, the GI50 in the assay with A549, with NCI-H460, in the assay with SK-MEL-2, in the assay with PC-3 and with LOX IMVI was > 100 µM (inactive) each time.
With `O=c1c2cc([N+](=O)[O-])ccc2[nH]n1Cc1ccccn1`, the GI50 in the assay on CCRF-CEM, in the assay on UACC-257, in the assay on SF-295, with HCC 2998, with MDA-MB-231 and in the assay on NCI-H23 was > 100 µM (inactive) each time. Further, the GI50 in the assay on RPMI-8226, in the assay with M14, in the assay with NCI/ADR-RES, with OVCAR-3, in the assay on HCT-116 and in the assay on Malme-3M was > 100 µM (inactive) in each case. The GI50 in the assay on IGROV-1, in the assay with Hs-578T, in the assay on A549, in the assay with NCI-H460, in the assay on PC-3 and in the assay with LOX IMVI was > 100 µM (inactive) throughout.
Turning to `CC(=O)O[C@H]1C(=O)[C@@]2(C)[C@H]([C@H](OC(=O)c3ccccc3)[C@]3(O)C[C@H](OC(=O)[C@H](O)[C@@H](NC(=O)c4ccc(N(C)C)cc4)c4ccccc4)C(C)=C1C3(C)C)[C@]1(OC(C)=O)CO[C@@H]1C[C@@H]2O`, the GI50 with CCRF-CEM is < 0.005 µM (active); with SF-295, 0.0119 µM (active); with HCC 2998, < 0.005 µM (active); with MDA-MB-231, 0.0543 µM (active); in the assay on NCI-H23, 0.00849 µM (active); with RPMI-8226 it was < 0.005 µM (active). Besides, the GI50 in the assay with M14 was < 0.005 µM (active); in the assay with NCI/ADR-RES, 2.21 µM (inactive); in the assay with OVCAR-3, < 0.005 µM (active); with HCT-116, < 0.005 µM (active); in the assay on IGROV-1 it was 0.00962 µM (active); in the assay on Hs-578T it was < 0.005 µM (active). The GI50 in the assay on A549 is < 0.005 µM (active); with NCI-H460 it was < 0.005 µM (active); in the assay with SK-MEL-2, 0.05 µM (active); in the assay on PC-3 it was < 0.005 µM (active); in the assay on LOX IMVI, < 0.005 µM (active).
Regarding `CCc1cccc(C)c1NC(=S)NC(=O)c1ccccc1C(=O)NC(=S)Nc1c(C)cccc1CC`, the GI50 is 36.3 µM (inactive) in the assay with CCRF-CEM; > 100 µM (inactive) with UACC-257; 57.7 µM (inactive) in the assay on SF-295; 90.6 µM (inactive) with HCC 2998; 35.6 µM (inactive) in the assay with NCI-H23; 60 µM (inactive) in the assay with RPMI-8226. The GI50 is > 100 µM (inactive) in the assay with M14; 23.8 µM (inactive) in the assay on OVCAR-3; 71.4 µM (inactive) in the assay on HCT-116; > 100 µM (inactive) in the assay with Malme-3M; 93.8 µM (inactive) in the assay with IGROV-1; 90.4 µM (inactive) in the assay on A549. Further, the GI50 in the assay on NCI-H460 was 67.8 µM (inactive); with SK-MEL-2, > 100 µM (inactive); in the assay with LOX IMVI, > 100 µM (inactive).
On to `CC(=O)c1ccccc1NCC(=O)Nn1cnc2ccc(S(=O)(=O)Nc3ccccc3C(C)=O)cc2c1=O`, for which the GI50 in the assay with CCRF-CEM, in the assay with UACC-257, with SF-295, in the assay on HCC 2998, with MDA-MB-231 and in the assay with NCI-H23 was > 100 µM (inactive) each time. Besides, the GI50 in the assay on RPMI-8226, in the assay with M14, in the assay on NCI/ADR-RES, in the assay on OVCAR-3, in the assay with HCT-116 and with Malme-3M was > 100 µM (inactive) throughout. For the same compound, the GI50 in the assay with IGROV-1 is 2.53 µM (inactive); in the assay on Hs-578T, 33.7 µM (inactive); with A549, > 100 µM (inactive); with NCI-H460, > 100 µM (inactive); in the assay on SK-MEL-2, > 100 µM (inactive); in the assay with PC-3, > 100 µM (inactive). For the same compound, the GI50 in the assay with LOX IMVI was > 100 µM (inactive).

Source of the values: ChEMBL document CHEMBL1201862, “PubChem BioAssay data set” (2004).
